According to US20080254490A1, “Salivary Protease Assays for Identifying Increased Risk of Preterm Delivery Induced by Premature Rupture of Fetal Membranes” (priority 2005, published 2008):

Key:
[1] = test system: metalloproteinase activity in human saliva samples; experiment: Proteinase activity assay in saliva with DQ-gelatin (fluorometry); format: biochemical; conditions: compared with BB-94
Procedure: Proteinase activity assay: Total proteolytic activity in saliva samples was measured by fluorometry using the generic substrate DQ-gelatin (Molecular Probes Inc). An aliquot (usually 50 μl per 160 μl total assay volume) of each sample was mixed with substrate (10 μg/ml) in tricine buffer (50 mM Tricine, pH 7.4; 200 mM NaCl; 10 mM CaCl2; 0.05 mM ZnSO4; 0.005% Brij 35) and incubated at 37° C. An inhibitor cocktail comprising of inhibitors of serine, cysteine and aspartyl proteinases (‘Complete—EDTA free’, Roche Biochemicals, San Diego, Calif.) was included in the reactions for all the human saliva samples. Fluorometric measurements (excitation at 485 nm and emission at 538 nm) recorded every 10-20 minutes for 2 hours. These values were used to calculate an initial rate of enzyme activity (Fluorescence units/minute) which, for the murine samples, was then normalized for amylase concentration. To measure non-metalloproteinase activity, EDTA at a concentration of 30 mM was included in the assay mixture. Metalloproteinase (MP) activity was then determined as total less the EDTA-inhibited activity. Similarly, matrix metalloproteinase (MMP) activity, defined as the BB-94-inhibitible activity, was determined by subtracting the activity in the presence of BB-94 (25 μM) from total proteinase activity. […]

[2] = test system: sheddases, proteinases of the ADAM family; conditions: cited from earlier work
[3] = test system: MMP9 specific bands (gelatinolytic activity) in saliva; conditions: control gels treated with EDTA
Procedure: Zymography: 20 μl of each saliva sample was mixed with 5 μl of a sample buffer containing 250 mM Tris pH 6.8, 25% glycerol, 10% (w/v) SDS, 0.01% bromophenol blue and loaded onto 10% SDS-PAGE gels containing 0.25% porcine gelatin (Sigma). Molecular weight markers (Biowhittaker Molecular Applications, Rockland, Me., USA) and a positive control sample of conditioned medium from the human fibrosarcoma cell line HT-1080 were also included on the gel. Following electrophoresis, the gels were washed twice for 15 mins each in 2.5% Triton X-100 and then incubated overnight at 37° C. in a substrate buffer containing 50 mM Tris-HCl, pH 7.6 and 10 mM CaCl2 in the absence or presence of proteinase inhibitors EDTA (30 mM), BB-94 (20 μM), BMS-275291 (20 μM) or B428 (20 μM). Following incubation, the gels were stained with a solution of 0.5% (w/v) Coomassie Blue R250 prepared in 50% methanol: 10% acetic acid. Once stained, the gels were briefly de-stained in the same solution without the Coomassie Blue and then stored in distilled water. Areas of gelatinolytic activity appeared cleared against the blue background of the coomassie-stained undigested gelatin.

Structure (SMILES): CNC(=O)[C@@H](NC(=O)[C@H](CC(C)C)NC(=O)[C@@H](S)CCN1C(=O)N(C)C(C)(C)C1=O)C(C)(C)C [BMS-275291]
- inhibition of salivary metalloproteinase activity (DQ-gelatin cleavage) [1]: results comparable to those with BB-94

Structure (SMILES): CNC(=O)[C@H](Cc1ccccc1)NC(=O)[C@H](CC(C)C)[C@H](CSc1cccs1)C(=O)NO [BB-94]
- activity against sheddases [2]: activity against sheddases

Structure (SMILES): O=C(O)CN(CCN(CC(=O)O)CC(=O)O)CC(=O)O [EDTA]
- gelatinolytic bands on zymography gels [3]: showed no bands
